In patent US20090130239A1, “METHOD FOR PREVENTING OR TREATING EDEMA OR DERMATITIS USING GLEHNIA LITTORALIS FR. SCHMIDT ET MIQUEL EXTRACT” (Korea Institute of Oriental Medicine, priority 2007, published 2009):

Test system: TPA induced immune cell infiltration and epidermal hyperproliferation
Assay: Histopathological analysis of ear tissues (H&E), TPA induced acute dermatitis
Assay type: in vivo, mouse
Conditions: ear tissue, 6 hours after TPA, extract 400 mg/kg, indomethacin 10 mg/kg, compared with TPA treated group
Protocol: C57BL/6J male mouse at 5 weeks (DAE HAN BIOLINK CO., LTD.), the most widely used inflammation animal model, was adapted to the experimental environment for 1 week. Total 40 mice were group into 4 (10 mice per each group). TPA (12-O-Tetrade-canoylphobol 13-acetate) was locally applied (2.5 ug/20 ul acetone) to the right ears of 6 week old mice to induce edema and dermatitis. The left ears of the mice were used as the negative control, to which an excipient (20 ul of acetone) was treated. The experimental group was treated with Glehnia littoralis Fr. Schmidt et Miquel extract (400 mg/kg) by intraperitoneal injection one hour before TPA treatment. The positive control group was administered with indomethacin (10 mg/kg) one hour before TPA treatment and the negative control was administered with saline by the same manner.
Inflammation was induced for 6 hours by the same manner as described in Experimental Example <1-1> and then the animal was sacrificed. […] In the […], edema and inflammation accompanying symptoms of migration and infiltration of polymorphonuclear leukocytes were induced. In the meantime, in the experimental group (C) administered with Glehnia littoralis Fr. […]

COc1ccc2c(c1)c(CC(=O)O)c(C)n2C(=O)c1ccc(Cl)cc1 [indomethacin] was tested. Which “infiltration of immune cells and epidermal hyperproliferation” value did it give?
Its value is “inhibition”.
